Reference: patent US9371337B2, “β-lactamase inhibitors” (The Regents of the University of California, priority 2011, dated 2016)

Tests used:
[1] = tested on: E. cloacae overproducing chromosomally-mediated class C β-lactamase; assay: MIC of third-generation cephalosporins alone and with compounds 4 or 9 (Table 3); type: cell-based, Enterobacter cloacae; conditions: antibiotic alone
Excerpt: (§1) Antimicrobial activity was investigated quantitatively to determine the minimum inhibitory concentrations (MICs) of the β-lactam/inhibitor combination necessary to inhibit the bacterial growth (Table 3). The MICs of β-lactams alone against the strains corresponded to a high level of resistance according to Clinical and Laboratory Standards Institute (CLSI) standards. (Clinical and Laboratory Standards Institute, Performance standards for antimicrobial susceptibility testing, 20th Informational Supplement, M100-S20 2010) The compounds had no measurable antibiotic activity when used alone.
(§2) Susceptibility testing was performed and interpreted following the guidelines of CLSI. (Clinical and Laboratory Standards Institute, Performance standards for antimicrobial susceptibility testing, 20th Informational Supplement, M100-S20 2010) The compounds were dissolved in 50% DMSO, and dilutions were performed using Muller-Hinton medium. An adequate final concentration was obtained to determine the minimum inhibitory concentrations (MICs). The concentration of DMSO was maintained below 5%. The inhibitors were tested for synergy with the third-generation β-lactams ceftazidime and cefotaxime against several clinical bacteria. […] Each value reported reflects the average of three independent experiments. […] A Klebsiella pneumoniae isolate produced the inducible plasmid-mediated class C enzyme DHA-1. The Friedman's test and the Wilcoxon signed rank test were used to compare MIC values. Statistical significance was established at p<0.05.

[2] = tested on: K. pneumoniae producing the plasmid-mediated class C β-lactamase DHA-1; assay: as above; type: cell-based, Klebsiella pneumoniae; conditions: antibiotic alone
Excerpt: as §1, §2

[3] = tested on: OXA-48-producing K. pneumoniae; assay: MIC of third-generation cephalosporins alone and with compounds (Table 6); type: cell-based, Klebsiella pneumoniae; conditions: antibiotic alone
Method: (§3) The anti-resistance activity of inhibitors was investigated by the determination of the minimum inhibitory concentrations (MICs) of the β-lactam/inhibitor combination necessary to inhibit the growth of clinically-isolated bacteria resistant to third-generation cephalosporins via expression of class A or class C β-lactamases (Table 6).
(§4) Susceptibility testing was performed and interpreted following the guidelines of CLSI. (Clinical and Laboratory Standards Institute, Performance standards for antimicrobial susceptibility testing, 20th Informational Supplement, M100-S20 2010) The compounds were dissolved in 50% DMSO, and dilutions were performed using Muller-Hinton medium. An adequate final concentration was obtained to determine the minimum inhibitory concentrations (MICs). The concentration of DMSO was maintained below 5%. The inhibitors were tested for synergy with the third-generation β-lactams ceftazidime and cefotaxime against several clinical bacteria. The ratio of β-lactams to inhibitors was 1:4. Each value reported reflects the average of three independent experiments. […] The Friedman's test and the Wilcoxon signed rank test were used to compare MIC values. Statistical significance was established at p<0.05.
(§5) Table 6. MICs (μg/ml) of third-generation cephalosporins alone and in association with the compounds (ratio 1/4) for clinical bacteria. CTX, cefotaxime and CAZ, ceftazidime. ^1, AmpC-overproducing bacteria; ^2, CTX-M-14-producing E. coli; ^3, KPC-2-producing K. pneumoniae; ^4, OXA-48-producing K. pneumoniae; ^5, NDM-1-producing C. freundii.

[4] = tested on: K. pneumoniae, AmpC-overproducing; assay: as above; type: cell-based, Klebsiella pneumoniae; conditions: antibiotic alone
Method: as §3, §4, §5

[5] = tested on: P. aeruginosa overproducing chromosomally-mediated class C β-lactamase; assay: MIC of third-generation cephalosporins alone and with compounds 4 or 9 (Table 3); type: cell-based, Pseudomonas aeruginosa; conditions: antibiotic alone
Excerpt: as §1, §2

[6] = tested on: E. coli overproducing chromosomally-mediated class C β-lactamase; assay: as above; type: cell-based, Escherichia coli; conditions: antibiotic alone
Excerpt: as §1, §2

[7] = tested on: E. coli producing plasmid-mediated class A β-lactamase CTX-M-14; assay: as above; type: cell-based, Escherichia coli; conditions: antibiotic alone
Excerpt: as §1, §2

[8] = tested on: E. cloacae 135, AmpC-overproducing; assay: MIC of third-generation cephalosporins alone and with compounds (Table 6); type: cell-based, Enterobacter cloacae; conditions: antibiotic alone
Method: as §3, §4, §5

[9] = tested on: E. cloacae, AmpC-overproducing; assay: as above; type: cell-based, Enterobacter cloacae; conditions: antibiotic alone
Method: as §3, §4, §5

[10] = tested on: C. freundii overproducing chromosomally-mediated class C β-lactamase; assay: MIC of third-generation cephalosporins alone and with compounds 4 or 9 (Table 3); type: cell-based, Citrobacter freundii; conditions: antibiotic alone
Excerpt: as §1, §2

[11] = tested on: NDM-1-producing C. freundii; assay: MIC of third-generation cephalosporins alone and with compounds (Table 6); type: cell-based, Citrobacter freundii; conditions: antibiotic alone
Method: as §3, §4, §5

[12] = tested on: C. freundii 101, AmpC-overproducing; assay: as above; type: cell-based, Citrobacter freundii; conditions: antibiotic alone
Method: as §3, §4, §5

[13] = tested on: C. freundii, AmpC-overproducing; assay: as above; type: cell-based, Citrobacter freundii; conditions: antibiotic alone
Method: as §3, §4, §5

[14] = tested on: E. coli 146, AmpC-overproducing; assay: as above; type: cell-based, Escherichia coli; conditions: antibiotic alone
Method: as §3, §4, §5

[15] = tested on: E. coli, AmpC-overproducing; assay: as above; type: cell-based, Escherichia coli; conditions: antibiotic alone
Method: as §3, §4, §5

[16] = tested on: E. coli 142, AmpC-overproducing; assay: as above; type: cell-based, Escherichia coli; conditions: antibiotic alone
Method: as §3, §4, §5

[17] = tested on: E. coli 144, AmpC-overproducing; assay: as above; type: cell-based, Escherichia coli; conditions: antibiotic alone
Method: as §3, §4, §5

[18] = tested on: E. coli R1, AmpC-overproducing; assay: as above; type: cell-based, Escherichia coli; conditions: antibiotic alone
Method: as §3, §4, §5

[19] = tested on: CTX-M-14-producing E. coli; assay: as above; type: cell-based, Escherichia coli; conditions: antibiotic alone
Method: as §3, §4, §5

[20] = tested on: E. coli 145, AmpC-overproducing; assay: as above; type: cell-based, Escherichia coli; conditions: antibiotic alone
Method: as §3, §4, §5

[21] = tested on: P. aeruginosa, AmpC-overproducing; assay: as above; type: cell-based, Pseudomonas aeruginosa; conditions: antibiotic alone
Method: as §3, §4
Table 6. MICs (μg/ml) of third-generation cephalosporins alone and in association with the compounds (ratio 1/4) for clinical bacteria. […]

[22] = tested on: AmpC-overproducing Escherichia coli strain 4; assay: Mouse model of bacteremia and sepsis, survival; type: in vivo, OF1 mice; conditions: 120 h post infection; ip at 0.5, 3.5, 6.5 h; imipenem 50 mg/kg, cefotaxime 50 mg/kg, cefotaxime:CR161 50:200 mg/kg
Method: FIG. 17. Percentage of survival of mice infected with AmpC-overproducing Escherichia coli over the course of 5 days (120 h). Mice were inoculated by intraperitoneal injection with AmpC-overproducing Escherichia coli strain 4 (1±0.5 10^9 colony-forming units) and treated at 0.5, 3.5, 6.5 h after infection by intraperitoneal injection of 50 mg/kg imipenem (□, n=20), 50:200 mg/kg cefotaxime:CR161 combination (▪, n=17), 50 mg/kg cefotaxime (●, n=20) or sterile isotonic saline (◯, n=20).
Efficacy in a mouse model of infection. We had not observed such substantial reversal of bacterial resistance to β-lactams, across such a broad spectrum of clinical isolates, for previous series of boronic acid inhibitors of β-lactamase; indeed, this lack of efficacy had motivated this study. These new cell-culture MIC values inspired us to investigate the efficacy of one of these compounds in a mouse model of bacteremia and sepsis. […] Mice were treated with cefotaxime alone, cefotaxime combined with compound CR161, with sterile isotonic saline, and with imipenem as a reference treatment of systemic infections by cephalosporin-resistant enterobacteriaceae (FIG. 17); 20 mice were used in each clade. […]
OF1 mice 4-5 weeks of age and weighing 20-25 g were used in this study. […] The survival of mice in each group was monitored every 6 h for 5 days after infection. […]

Structure (SMILES): CC(C)(O/N=C(\C(=O)N[C@@H]1C(=O)N2C(C(=O)[O-])=C(C[n+]3ccccc3)CS[C@H]12)c1csc(N)n1)C(=O)O [Ceftazidime]
- MIC, cephalosporin alone [1]: 64 µg/mL
- MIC, cephalosporin alone [2]: 32 µg/mL
- MIC, cephalosporin alone [3]: 256 µg/mL
- MIC, cephalosporin alone [4]: 32 µg/mL
- MIC, cephalosporin alone [5]: 32 µg/mL
- MIC, cephalosporin alone [6]: 64 µg/mL
- MIC, cephalosporin alone [7]: 2 µg/mL
- MIC, cephalosporin alone [8]: 128 µg/mL
- MIC, cephalosporin alone [9]: 64 µg/mL
- MIC, cephalosporin alone [10]: 64 µg/mL
- MIC, cephalosporin alone [11]: 512 µg/mL
- MIC, cephalosporin alone [12]: 128 µg/mL
- MIC, cephalosporin alone [13]: 64 µg/mL
- MIC, cephalosporin alone [14]: 64 µg/mL
- MIC, cephalosporin alone [15]: 128 µg/mL
- MIC, cephalosporin alone [16]: 32 µg/mL
- MIC, cephalosporin alone [17]: 64 µg/mL
- MIC, cephalosporin alone [18]: 8 µg/mL
- MIC, cephalosporin alone [19]: 2 µg/mL
- MIC, cephalosporin alone [20]: 128 µg/mL
- MIC, cephalosporin alone [21]: 32 µg/mL

Structure (SMILES): C[C@@H](O)[C@H]1C(=O)N2C(C(=O)O)=C(SCCN=CN)C[C@H]12 [Imipenem, imipenem]
- survival [22]: 90%
